Assay results: article PMC9775191, “A Subset Screen of the Compounds Australia Scaffold Library Identifies 7-Acylaminodibenzoxazepinones as Potent and Selective Hits for Anti-Giardia Drug Discovery” (Biomedicines, 2022)

What follows are compounds tested on G. duodenalis BRIS/91/HEPU/1279 (assay: Primary Giardia screen at 10 µM (live-cell imaging, automated counting)). Details: 24 h.
Type: cell-based, Giardia duodenalis
Method in brief: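 One concentration, 10 μM, is screened per compound in singlicate under microaerophilic gas (3% O2, 5% CO2, N2). Inhibition comes from automated image-based counts at 24 and 48 h, relative to 0.2% DMSO controls.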

Compound | Average % Inhibition 24h [%]
O=C(NC1CCCCCC1)c1cc2cn(C3CC3)cc2s1 [SN00802023] | 1.8

Same assay, conditions: 24 h, first singlicate assay

Compound | % Inhibition n=1 24h [%]
O=C(NC1CCCCCC1)c1cc2cn(C3CC3)cc2s1 [SN00802023] | 3.6

Same assay, conditions: 24 h, re-assessment

Compound | % Inhibition n=2 24h [%]
O=C(NC1CCCCCC1)c1cc2cn(C3CC3)cc2s1 [SN00802023] | 0.0

Same assay, conditions: 48 h

Compound | Average % Inhibition 48h [%]
O=C(NC1CCCCCC1)c1cc2cn(C3CC3)cc2s1 [SN00802023] | 46.9

Same assay, conditions: 48 h, first singlicate assay

Compound | % Inhibition n=1 48h [%]
CCOCCn1c(N2CCCCC2)nc(C)cc1=O [SN00799709] | 33.8
O=C(Nc1cnc(-c2ccccc2)nc1)c1ccccc1C(F)(F)F [SN00799772] | 0.0
CN1CCCc2cc(C(=O)NCc3cccs3)sc21 [SN00799810] | 0.0
CCOc1ccc2nc(C(=O)N3CCN(c4cccc(C)c4C)CC3)cn2n1 [SN00799885] | 9.3
O=C(c1cn2ccccc2n1)N1CCN(c2ccccc2F)CC1 [SN00799900] | 4.9
CSc1ccc(CNC(=O)c2cn3cc(C)ccc3n2)cc1 [SN00799926] | 26.2
CCCn1ccc2sc(C)c(C(=O)NC3CCCCC3)c2c1=O [SN00799943] | 16.0
Cc1sc2ccn(CC(C)C)c(=O)c2c1C(=O)NCCN1CCCCC1 [SN00799956] | 23.1
CNc1cccnc1OC1CCN(C(=O)CCc2nc3ccccc3[nH]2)C1 (stereo not shown) [SN00799967] | 11.3
O=S(=O)(Nc1ccc(OC2CCNCC2)nc1)c1ccccc1 [SN00799991] | 0.0
COCC(=O)N1CCC(Oc2ncccc2C(=O)N(C)C)CC1 [SN00800001] | 4.8
CN1CCC(Oc2ncccc2C(=O)N2CCOCC2)CC1 [SN00800013] | 15.5
Cc1ccc(C(=O)N2CCC(Oc3ncccc3C(=O)N3CCCCC3)C2)c(C)c1 (stereo not shown) [SN00800036] | 0.0
CN(C)C(=O)c1ccc(OC2CCN(C(=O)c3ccco3)CC2)nc1 [SN00800077] | 13.6
CN(C)C(=O)c1ccc(OC2CCN(Cc3ccccn3)C2)nc1 (stereo not shown) [SN00800120] | 6.6
O=C(c1ccoc1)N1CCC(Oc2nccnc2N2CCc3ccccc32)C1 (stereo not shown) [SN00800151] | 22.8
COc1cccc(N2CCN(C(=O)C3CCN(c4nc(NC(C)=O)ns4)CC3)CC2)c1 [SN00800160] | 16.2
CC(=O)Nc1nsc(N2CCCC(C(=O)NCc3ccccc3Cl)C2)n1 (stereo not shown) [SN00800180] | 5.9
CCN1c2cc(Cl)ccc2C(=O)NC12CCN(C(=O)Nc1ccc3c(c1)OCO3)CC2 [SN00800192] | 8.9
CCc1nn(CC)c(=O)c2cc(S(=O)(=O)N3CCOCC3)cn12 [SN00800228] | 11.8
CN(C)C(=O)c1[nH]nc2c1CN(C(=O)CCc1ccccc1)CC2 [SN00800269] | 0.0

Compound | % Inhibition n=1 48h [%]
O=C(c1cccc(N2CCNC(c3ccccc3)C2)n1)N1CCN(c2ccccc2)CC1 (stereo not shown) [SN00800322] | 13.5
O=C(c1ccccc1)N1CCN(c2cc(-c3ccc(Cl)cc3)n[nH]2)CC1 [SN00800335] | 14.4
COc1ccc(-c2cc(N3CCN(C(=O)Cc4ccc(F)cc4)CC3)[nH]n2)cc1 [SN00800353] | 0.0
COc1ccc(-c2cc(N3CCC(NC(=O)Cc4ccccc4)CC3)[nH]n2)cc1 [SN00800379] | 0.0
O=C(NC1CCN(c2cc(-c3cccs3)n[nH]2)C1)c1ccc2[nH]cnc2c1 (stereo not shown) [SN00800411] | 29.6
CC1CCN(c2nc(C(=O)NCCc3ccncc3)nc3c2cnn3C)CC1 [SN00800416] | 9.4
CCOC(=O)c1ccc(NC(=O)c2nc(C)n(C3CCN(C(C)=O)CC3)c2C)cc1 [SN00800452] | 13.2
O=C1CC(C(=O)N2CCN(c3ccccc3)CC2)CN1CCc1ccccc1 (stereo not shown) [SN00800474] | 6.2
CCc1noc(C2(NC(=O)c3cc(-c4ccccc4)n[nH]3)CCCCC2)n1 [SN00800487] | 0.0
Cc1ccc(CNC(=O)N2CCCN(c3ncccc3-c3nc(C4CC4)no3)CC2)cc1 [SN00800535] | 34.3
Cc1nnc(-c2nnc(NCc3ccccc3)c3ccccc23)o1 [SN00800540] | 1.6
CCc1nnc(-c2nnc(NCc3ccc4c(c3)OCO4)c3ccccc23)o1 [SN00800558] | 0.0
CCn1ccc(C(=O)Nc2ccc3c(c2)Sc2ncccc2C(=O)N3C)n1 [SN00800580] | 19.0
Cc1cc(NS(=O)(=O)c2cc(-c3[nH]ncc3C(=O)N3CCCC3)oc2C)ccc1F [SN00800668] | 0.0
CCOC(=O)CCNC(=O)N1CCc2c(nc3cc(-c4ccccc4Cl)[nH]n3c2=O)C1 [SN00800844] | 13.6
COc1ccc(-c2cc3nc4c(c(=O)n3[nH]2)CNCC4)cc1 [SN00800876] | 0.0
Cc1ccc(CNC(=O)N2CCN(C3=CC4=NCC(C)N4C=N3)CC2)cc1 (stereo not shown) [SN00800883] | 11.9
CCC1CN2C=NC(N3CCN(C(=O)CCc4ccccc4OC)CC3)=CC2=N1 (stereo not shown) [SN00800900] | 25.4
O=C(N[C@H]1C[C@@H]2C[C@H]1N(C(=O)Nc1ccc3c(c1)CCC3)C2)c1ccccc1 [SN00800945] | 6.6
O=C(N[C@H]1C[C@@H]2C[C@H]1CN2S(=O)(=O)c1ccc2c(c1)CCCC2)c1cccnc1 [SN00800980] | 0.6
O=C(Cc1ccccc1F)N1CCC(Nc2cccnc2)C1 (stereo not shown) [SN00801060] | 18.5

Compound | % Inhibition n=1 48h [%]
CCn1nccc1C(=O)NC1CCN(c2nccnc2OC)C1 (stereo not shown) [SN00801093] | 0.0
O=C(c1cccc2[nH]ccc12)N1CCC(c2nc(-c3ccccc3)no2)C1 (stereo not shown) [SN00801115] | 23.0
CCn1cc(CN2CCC(OCc3nc(C4CC4)no3)CC2)cn1 [SN00801138] | 0.0
O=C(c1ccco1)N1CCC(OCc2nc(-c3ccncc3)no2)CC1 [SN00801147] | 18.6
Cc1noc(COC2CCCN(C(=O)c3nn(C)c4ccccc34)C2)n1 (stereo not shown) [SN00801154] | 0.0
COc1cccc(C(=O)N(CC2CCOC2)C2CC2)c1 (stereo not shown) [SN00801182] | 0.0
CN(CC1CCOC1)C(=O)Cc1ccccc1 (stereo not shown) [SN00801209] | 0.0
CN(C)[C@@H]1CN(C(=O)c2ccco2)CC[C@]1(O)c1ccccc1 [SN00801222] | 3.1
CN(C)CC1CN(S(=O)(=O)c2ccccc2)CC12CCOCC2 (stereo not shown) [SN00801264] | 0.0
CN(C)CC1CN(S(=O)(=O)C2CC2)CC12CCOCC2 (stereo not shown) [SN00801268] | 16.1
CN(C)[C@@H]1CN(Cc2ccc3[nH]ccc3c2)CC[C@H]1CO [SN00801277] | 6.2
CN1C(=O)CC[C@]2(CNC(=O)C3(c4ccccc4)CC3)CCC[C@@H]12 [SN00801306] | 21.4
COCC1CN(C(=O)c2ccc(OC)cc2)CC12CCOCC2 (stereo not shown) [SN00801332] | 24.3
CC1(c2nc(C3CC3)no2)CCCN(C(=O)CCC2CCCC2)C1 (stereo not shown) [SN00801392] | 3.8
COc1ccc(C2CCC(=O)N2CCN2CCOCC2)cc1 (stereo not shown) [SN00801430] | 34.6
CCC(=O)N1CCc2c(sc3ncnc(N(C)C4CCN(C)CC4)c23)C1 [SN00801485] | 0.0
CC(C)S(=O)(=O)N1CCC(N(C)C2CCOCC2)CC1 [SN00801518] | 0.0
CN1CCC(OC2CCN(C(=O)CC3CCCC3)CC2)CC1 [SN00801545] | 26.4
CNC(=O)N1CCC(C2CCN(C(=O)c3ccncc3)CC2)C1 (stereo not shown) [SN00801593] | 4.5
CCc1ccc(NC(=O)Cn2nc3n(c2=O)CCCC3)cc1 [SN00801641] | 9.1
O=C(Cn1nc2n(c1=O)CCCC2)NCc1ccccc1Br [SN00801654] | 6.0

Compound | % Inhibition n=1 48h [%]
O=C(c1cnccn1)N1CCCC1c1nc(-c2ccccc2)no1 (stereo not shown) [SN00801675] | 0.0
COc1ccc(C2(C(=O)N3CCC(Cc4nc(-c5ccc(F)cc5)no4)CC3)CC2)cc1 [SN00801690] | 0.0
CCc1ccc(C(=O)N2CCC(Cc3nc(-c4ccc(OC)cc4)no3)CC2)cc1 [SN00801692] | 0.0
CC(C)(C)c1ccc(C(=O)N2CCC3(CC2)NC(c2ccccc2)=NO3)cc1 [SN00801741] | 0.0
O=C1CC(c2noc(-c3ccc(F)cc3)n2)CN1c1ccc(F)cc1 (stereo not shown) [SN00801778] | 9.0
COc1ccc(N2CC(c3noc(-c4ccc(C(C)(C)C)cc4)n3)CC2=O)cc1 (stereo not shown) [SN00801793] | 0.0
O=C(Nc1ccc(N2CCN(C3CCCCC3)C2=O)nc1)c1ccc(Cl)s1 [SN00801852] | 26.3
O=C(c1cn2ccnc(-c3ccccc3)c2n1)N1CCCCC1 [SN00801929] | 30.6
Cc1scc2nc(C(N)=O)nc(N3CCCC3)c12 [SN00801956] | 22.6
COCCn1c(C2CCN(S(=O)(=O)c3cccs3)C2)nc2cccnc21 (stereo not shown) [SN00802004] | 5.3
O=C(NC1CCCCCC1)c1cc2cn(C3CC3)cc2s1 [SN00802023] | 43.4
CC(C)n1cc2cc(C(=O)NCCCN3CCCc4ccccc43)sc2c1 [SN00802034] | 3.6
c1cnc(-c2nnc(C3CCCNC3)[nH]2)cn1 (stereo not shown) [SN00802129] | 2.3
CCC(=O)N1CC(C(=O)NCCN(C)C)C2(CCOCC2)C1 (stereo not shown) [SN00802145] | 13.1
Cc1nc(C)c2c(n1)N(CCN(C)C1CCCCC1)C(=O)CC2 [SN00802202] | 0.0
Cc1nc(-c2ccncc2)nc2c1CCC(=O)N2CCC1=CCCCC1 [SN00802205] | 0.0
CCNC(=O)c1c(C)oc2c1CNCC2 [SN00802246] | 10.3
CCC1(N2CCN(C)CC2)CCN(S(=O)(=O)c2ccccc2)C1 (stereo not shown) [SN00802274] | 2.6
CCCCN1CCN(C(=O)c2cc3c(=O)n(CC(C)C)c4ccccc4n3n2)CC1 [SN00802291] | 12.0
Cc1ccc(CNC(=O)N2CCCN(C3CCN(CC4CC4)C3=O)CC2)cc1 (stereo not shown) [SN00802402] | 5.4

Same assay, conditions: 48 h, re-assessment

Compound | % Inhibition n=2 48h [%]
O=C(NC1CCCCCC1)c1cc2cn(C3CC3)cc2s1 [SN00802023] | 50.4
